Species: Rattus norvegicus
Experiment: DrugMatrix - Regimen: Daily Repeat
Assay type: toxicity, organism-based, Sprague-Dawley
Set-up: regimen Daily Repeat, gender Male, age 6-8 weeks
Conditions: in vivo, po, route oral GAVAGE, vehicle 100 % WATER; for URIC ACID / ALANINE AMINOTRANSFERASE / ALBUMIN / ALKALINE PHOSPHATASE / ASPARTATE AMINOTRANSFERASE / BLOOD UREA NITROGEN / CARBON DIOXIDE / CHLORIDE / CHOLESTEROL / CREATINE PHOSPHOKINASE / CREATININE / GLUCOSE / LACTATE DEHYDROGENASE / LIPASE / PHOSPHORUS / POTASSIUM / SODIUM / TOTAL BILIRUBIN / TOTAL PROTEIN: tissue Plasma; for ABSOLUTE BASOPHIL / ABSOLUTE EOSINOPHIL / ABSOLUTE LYMPHOCYTE / ABSOLUTE MONOCYTE / ABSOLUTE SEGMENTED NEUTROPHIL / BASOPHIL / EOSINOPHIL / ERYTHROCYTE COUNT / HEMATOCRIT / HEMOGLOBIN / LEUKOCYTE COUNT / LYMPHOCYTE / MEAN CORPUSCULAR HEMOGLOBIN / MEAN CORPUSCULAR HEMOGLOBIN CONCENTRATION / MONOCYTE / NEUTROPHIL / NUCLEATED RED BLOOD CELLS / PLATELET COUNT: tissue Blood
[1] = 50 mg/kg, 120 h, dose level Low, time 5 day
[2] = 1750 mg/kg, 72 h, dose level High, time 3 day
[3] = 1750 mg/kg, 120 h, dose level High, time 5 day

With `C[C@H](CS)C(=O)N1CCC[C@H]1C(=O)O` [CAPTOPRIL] the “URIC ACID” value (50 mg/kg, 72 h, dose level Low, time 3 day) was 1.37 mg/dL, the “ABSOLUTE BASOPHIL” value [1] was 0 CELLS/uL and the “ABSOLUTE EOSINOPHIL” value [1] was 130 CELLS/uL. For the same molecule, the “ABSOLUTE LYMPHOCYTE” value [1] was 12459.67 CELLS/uL, the “ABSOLUTE MONOCYTE” value [1] was 96.33 CELLS/uL and the “ABSOLUTE SEGMENTED NEUTROPHIL” value [1] was 1180.67 CELLS/uL. The BASOPHIL [1] was 0%, the EOSINOPHIL [1] was 1% and the “ERYTHROCYTE COUNT” value [1] was 5.51 x10E6/uL. The HEMATOCRIT [1] was 34.87%, the HEMOGLOBIN [1] was 14.1 G/DL and the “LEUKOCYTE COUNT” value [1] was 13.87 x10E3/uL. The LYMPHOCYTE [1] was 90%, the “MEAN CORPUSCULAR HEMOGLOBIN” value [1] was 25.63 pg and the “MEAN CORPUSCULAR HEMOGLOBIN CONCENTRATION” value [1] was 40.43 G/DL. The MONOCYTE [1] was 0.67%, the NEUTROPHIL [1] was 8.33% and the “NUCLEATED RED BLOOD CELLS” value [1] was 0.33 /100WBC. The “PLATELET COUNT” value [1] was 1341.67 x10E3/uL, the “ALANINE AMINOTRANSFERASE” value [1] was 46.33 u/L and the ALBUMIN [1] was 4.37 G/DL. For the same molecule, the “ALKALINE PHOSPHATASE” value [1] was 377.67 u/L, the “ASPARTATE AMINOTRANSFERASE” value [1] was 83.33 u/L and the “BLOOD UREA NITROGEN” value [1] was 16.67 mg/dL. The “CARBON DIOXIDE” value [1] was 30.67 mmol/L, the CHLORIDE [1] was 100.33 MEQ/L and the CHOLESTEROL [1] was 79.67 mg/dL. The “CREATINE PHOSPHOKINASE” value [1] was 326.33 u/L, the CREATININE [1] was 0.2 mg/dL and the GLUCOSE [1] was 140.67 mg/dL. For the same molecule, the “LACTATE DEHYDROGENASE” value [1] was 506 u/L, the LIPASE [1] was 12.67 u/L and the PHOSPHORUS [1] was 10.43 mg/dL. For the same molecule, the POTASSIUM [1] was 6.71 MEQ/L, the SODIUM [1] was 141.93 MEQ/L and the “TOTAL BILIRUBIN” value [1] was 0.2 mg/dL. The “TOTAL PROTEIN” value [1] was 6.37 G/DL, the “URIC ACID” value [1] was 1.4 mg/dL and the “ABSOLUTE BASOPHIL” value [2] was 0 CELLS/uL. For the same molecule, the “ABSOLUTE EOSINOPHIL” value [2] was 0 CELLS/uL, the “ABSOLUTE LYMPHOCYTE” value [2] was 14323.33 CELLS/uL and the “ABSOLUTE MONOCYTE” value [2] was 220.67 CELLS/uL. The “ABSOLUTE SEGMENTED NEUTROPHIL” value [2] was 1556 CELLS/uL, the BASOPHIL [2] was 0% and the EOSINOPHIL [2] was 0%. For the same molecule, the “ERYTHROCYTE COUNT” value [2] was 5.51 x10E6/uL, the HEMATOCRIT [2] was 34.3% and the HEMOGLOBIN [2] was 13.6 G/DL. The “LEUKOCYTE COUNT” value [2] was 16.1 x10E3/uL, the LYMPHOCYTE [2] was 89% and the “MEAN CORPUSCULAR HEMOGLOBIN” value [2] was 24.73 pg. For the same molecule, the “MEAN CORPUSCULAR HEMOGLOBIN CONCENTRATION” value [2] was 39.67 G/DL, the MONOCYTE [2] was 1.33% and the NEUTROPHIL [2] was 9.67%. For the same molecule, the “NUCLEATED RED BLOOD CELLS” value [2] was 0.67 /100WBC, the “PLATELET COUNT” value [2] was 1393 x10E3/uL and the “ALANINE AMINOTRANSFERASE” value [2] was 54.67 u/L. For the same molecule, the ALBUMIN [2] was 4.07 G/DL, the “ALKALINE PHOSPHATASE” value [2] was 365.33 u/L and the “ASPARTATE AMINOTRANSFERASE” value [2] was 87 u/L. For the same molecule, the “BLOOD UREA NITROGEN” value [2] was 25.67 mg/dL, the “CARBON DIOXIDE” value [2] was 24 mmol/L and the CHLORIDE [2] was 100.67 MEQ/L. For the same molecule, the CHOLESTEROL [2] was 71.67 mg/dL, the “CREATINE PHOSPHOKINASE” value [2] was 349.33 u/L and the CREATININE [2] was 0.16 mg/dL. The GLUCOSE [2] was 152.33 mg/dL, the “LACTATE DEHYDROGENASE” value [2] was 356 u/L and the LIPASE [2] was 10.33 u/L. The PHOSPHORUS [2] was 11.53 mg/dL, the SODIUM [2] was 139.9 MEQ/L and the “TOTAL BILIRUBIN” value [2] was 0.2 mg/dL. For the same molecule, the “TOTAL PROTEIN” value [2] was 5.73 G/DL, the “URIC ACID” value [2] was 1.27 mg/dL and the “ABSOLUTE BASOPHIL” value [3] was 0 CELLS/uL. The “ABSOLUTE EOSINOPHIL” value [3] was 0 CELLS/uL, the “ABSOLUTE LYMPHOCYTE” value [3] was 12668 CELLS/uL and the “ABSOLUTE MONOCYTE” value [3] was 119.33 CELLS/uL. The “ABSOLUTE SEGMENTED NEUTROPHIL” value [3] was 946 CELLS/uL, the BASOPHIL [3] was 0% and the EOSINOPHIL [3] was 0%. The “ERYTHROCYTE COUNT” value [3] was 5.54 x10E6/uL, the HEMATOCRIT [3] was 34.7% and the HEMOGLOBIN [3] was 13.83 G/DL. The “LEUKOCYTE COUNT” value [3] was 13.73 x10E3/uL, the LYMPHOCYTE [3] was 92.33% and the “MEAN CORPUSCULAR HEMOGLOBIN” value [3] was 25.03 pg. The “MEAN CORPUSCULAR HEMOGLOBIN CONCENTRATION” value [3] was 39.9 G/DL, the MONOCYTE [3] was 1% and the NEUTROPHIL [3] was 6.67%. The “NUCLEATED RED BLOOD CELLS” value [3] was 0 /100WBC, the “PLATELET COUNT” value [3] was 1353.67 x10E3/uL and the “ALANINE AMINOTRANSFERASE” value [3] was 53.67 u/L. The ALBUMIN [3] was 4.13 G/DL, the “ALKALINE PHOSPHATASE” value [3] was 415 u/L and the “ASPARTATE AMINOTRANSFERASE” value [3] was 102 u/L. The “BLOOD UREA NITROGEN” value [3] was 39.33 mg/dL, the “CARBON DIOXIDE” value [3] was 24.33 mmol/L and the CHLORIDE [3] was 102.33 MEQ/L. The CHOLESTEROL [3] was 70.33 mg/dL, the “CREATINE PHOSPHOKINASE” value [3] was 594.67 u/L and the CREATININE [3] was 0.33 mg/dL. For the same molecule, the GLUCOSE [3] was 145.33 mg/dL, the “LACTATE DEHYDROGENASE” value [3] was 1114.33 u/L and the LIPASE [3] was 11 u/L. The PHOSPHORUS [3] was 10.47 mg/dL, the POTASSIUM [3] was 6.84 MEQ/L and the SODIUM [3] was 141.27 MEQ/L. The “TOTAL BILIRUBIN” value [3] was 0.23 mg/dL, the “TOTAL PROTEIN” value [3] was 6.03 G/DL and the “URIC ACID” value [3] was 1.87 mg/dL.

— ChEMBL document CHEMBL3885881, “DrugMatrix”
